# Laboratory results published in US7977434B2, “Polymeric hydrophobic aminonitrile quats used for bleach activation” (BASF Aktiengesellschaft, priority 2005, dated 2011).
# Legend:
# Conditions in all cases: 25° C., 1% bleach activator, 15% by weight sodium percarbonate in color laundry detergent, 30 min wash
# [1] = Launderometer bleaching test, red wine stain
# Method: (§1) Standard test in a launderometer with 5% activator addition at 25° C. and 50° C. of tea-, red wine-, grass- and curry-stained fabric. In addition, the removal of triolein and olive oil stains from cotton fabric is investigated. To this end, triolein and olive oil are dyed with 0.1% Sudan red 7 B (=Solvent Red 19). This dye is dissolved and homogenized beforehand with gentle warming. The preparation is effected by adding dropwise with a pipette, in the course of which the test fabric is stretched. 0.1 g of the solution is added dropwise and spreads on the fabric overnight. All test specimens are determined twice.
# (§2) To this end, 15% by weight of bleach (sodium percarbonate) and 1.2 and 5% by weight of the appropriate activator are mixed into a commercial color laundry detergent which is homogenized in dry form.
# The bleaching experiments in the launderometer are evaluated by reflectance measurement and calculation of the bleaching action on the bleachable stains used (tea, red wine, grass, curry, triolein and olive oil). The standard deviation of the reflectance R is <1%. […]
# Mixing of stock hardness 1 (Ca^+++Mg^++) and stock hardness 2 (NaHCO3), both 0.8 mol/l in each case. […] The water hardness is determined by using Titriplex solution. • Stock hardness 1 94.09 g of calcium chloride 2H2O and 32.53 g of magnesium chloride. […]
# [2] = Launderometer bleaching test, tea stain
# Method: (§3) […] In addition, the removal of triolein and olive oil stains from cotton fabric is investigated. To this end, triolein and olive oil are dyed with 0.1% Sudan red 7 B (=Solvent Red 19). This dye is dissolved and homogenized beforehand with gentle warming. The preparation is effected by adding dropwise with a pipette, in the course of which the test fabric is stretched. 0.1 g of the solution is added dropwise and spreads on the fabric overnight. All test specimens are determined twice.
# (§4) The bleaching experiments in the launderometer are evaluated by reflectance measurement and calculation of the bleaching action on the bleachable stains used (tea, red wine, grass, curry, triolein and olive oil).
# (§5) Commercially unavailable stains such as tea, chlorophyll were premeasured individually.
# (§6) Mixing of stock hardness 1 (Ca^+++Mg^++) and stock hardness 2 (NaHCO3), both 0.8 mol/l in each case. Hard water is tested before use. The water hardness is determined by using Titriplex solution. • Stock hardness 1 94.09 g of calcium chloride 2H2O and 32.53 g of magnesium chloride. […]
# [3] = Launderometer bleaching test, grass stain
# Method: as §3, §4, §5, §6
# [4] = Launderometer bleaching test, curry stain
# Method: as §1, §2
# (§7) The bleaching experiments in the launderometer are evaluated by reflectance measurement and calculation of the bleaching action on the bleachable stains used (tea, red wine, grass, curry, triolein and olive oil). The standard deviation of the reflectance R is <1%.
# as §6
# [5] = Launderometer test, removal of triolein stain dyed with Sudan red 7 B
# Method: as §1, §2, §7, §6
# [6] = Launderometer test, removal of olive oil stain dyed with Sudan red 7 B
# Method: as §1, §2, §7, §6
Compound,"reflectance, Red wine [1] [%]","reflectance, Tea [2] [%]","reflectance, Grass [3] [%]","reflectance, Curry [4] [%]","reflectance, Triolein [5] [%]","reflectance, Olive oil [6] [%]"
"CC(=O)N(CCN(C(C)=O)C(C)=O)C(C)=O [TAED, tetraacetylethylenediamine]",58.4,34.5,39.2,65.1,42.6,40.0
"C[N+]1(CC#N)CCOCC1.O=S(=O)([O-])O [BMG, methylmorpholinioacetonitrile hydrogensulfate]",61.8,48.5,40.1,69.2,42.2,39.9
